Data as given in PMC11019550, “Potent Inhibition of E. coli DXP Synthase by a gem-Diaryl Bisubstrate Analog” (ACS Infectious Diseases, 2024).

Experiments:
[1] = molecular target: T1, wildtype EcDXPS (Escherichia coli, UniProt P77488); assay: IC50 determination for 8 on wildtype EcDXPS (DXPS-IspC coupled assay); format: biochemical
T1 construct: made in house
Method: (§1) EcDXPS and IspC were preincubated with inhibitor for 10 min at 25 °C in assay reaction buffer (100 mM HEPES pH 8, 2 mM MgCl2, 5 mM NaCl, 1 mM ThDP, and 200 μM NADPH). Enzyme concentrations for variants were as follows: 200 nM DXPS (wildtype EcDXPS) and 4 μM IspC; 400 nM DXPS (R99A and R478A EcDXPS) and 6 μM IspC. The reaction was initiated by the addition of substrates at final concentrations of 2 × Km pyruvate and 10 × KmD-GAP. NADPH consumption was monitored at 340 nm for 10 min at 25 °C. The initial rate of NADPH consumption was used to determine the initial rate of DXP formation catalyzed by DXPS. Experiments were performed in triplicate and error bars represented standard error.

[2] = molecular target: T2, R99A EcDXPS (Escherichia coli, UniProt P77488, R99A); assay: IC50 determination for 8 on R99A EcDXPS variant; format: biochemical; conditions: 400 nM DXPS, 2 × Km pyruvate, 10 × Km D-GAP
T2 construct: made in house
Method: as §1

[3] = molecular target: T3, EcDXPS (Escherichia coli, UniProt P77488); assay: DXPS-IspC coupled assay, apparent Ki on wildtype EcDXPS; format: biochemical; conditions: EcDXPS 100 nM, 10 min preincubation; Morrison equation fit; read-out: Ki^app
T3 construct: made in house
Method: To determine inhibitor potency, we used the DXPS-DXP reductoisomerae (DXPS-IspC) coupled assay to measure the activity of recombinant purified EcDXPS[24],[25],[31],[44],[50] in the presence of inhibitors. Reactions were initiated by the addition of substrates following a short preincubation of the inhibitor with enzymes, and initial velocities were determined by monitoring reduced nicotinamide adenine dinucleotide phosphate (NADPH) absorbance at 340 nm. Apparent Ki values were determined by fitting initial velocity data to the Morrison equation,[64],[65] which accounts for the tight-binding nature (Ki^app/[E]total < 10)[66] of inhibitors included in this study and allows for rigorous comparison of inhibitor potencies. […] Inhibitor activities were rationalized based on the predictions made from molecular docking of the corresponding PLThDP adducts into the DXPS active site.
All compounds in this study were evaluated as DXPS inhibitors using the DXPS-IspC coupled assay as previously reported.[24] […] The DXPS reaction was initiated by the addition of substrates (50 μM pyruvate and 500 μM D-GAP). The initial rate of depletion of NADPH was monitored at 340 nm and was used to calculate the initial rate of DXP formation in the presence or absence of inhibitor. Initial rates of DXP formation were plotted as a function of [inhibitor], and Ki^app was determined by fitting the data to the Morrison equation (eq 1)[64],[65] in GraphPad Prism. This approach was deemed appropriate as the concentration of free inhibitor cannot be assumed to remain constant for most of these analogs in which Ki^app values approach the concentration of DXPS.[88],[89] Error is reported as standard deviation from three replicates. Active enzyme concentration ([E]T) was determined following Copeland’s method using 8 (Figure S2B).[88]
The coupled assay was initiated by adding 20 μL of a 10× substrate stock to the preincubated E + I mixture to give a final volume of 200 μL. The final concentration of D-GAP was held constant at 500 μM, and [pyruvate] was added to final concentrations between 0 and 250 μM. The initial rate of NADPH depletion in the IspC-coupled reaction was monitored at 340 nm and was used to calculate the initial rate of DXP formation in the presence or absence of inhibitor. Initial rates were plotted as a function of [pyruvate]. […] Model discrimination analysis employing the Akaike information criterion was performed as well as Lineweaver–Burk analysis to determine the mixed model as the best fit. In all cases, error bars represent the standard deviation from three replicates.

[4] = molecular target: T2, R99A EcDXPS; assay: Circular dichroism titration (PLThDP formation, apparent KD) on R99A EcDXPS; format: binding
Method: CD titrations of 8 and 10 onto WT, R99A, and R478A EcDXPS variants were conducted at 25 °C under aerobic conditions in 1.5 mL solutions containing 30 μM EcDXPS in 50 mM HEPES pH 8, 100 mM NaCl, 1 mM MgCl2, and 0.2 mM ThDP. Scans were obtained from 280 to 400 nm with a 0.5 s averaging time and 1 nm step following a titration of inhibitor (8: 0.25–30 μM on WT, 0.5–30 μM on R99A and R478A; 10 2.5–30 μM on WT, R99A, and R478A), with a 5 min preincubation of inhibitor with DXPS prior to scanning. […] The CD signals at 294 nm determined from the difference spectra obtained by subtracting the signal of E-ThDP at 294 nm were plotted as a function of [inhibitor] and fit to (1) the quadratic equation described in eq 2 (8 on WT DXPS), where E is the concentration of DXPS taking into account stoichiometric binding and CDmax is the maximal CD signal, or (2) a one-site specific binding curve (all other experiments) using GraphPad Prism Version 9 to calculate an apparent KD. Experiments were conducted in triplicate and the standard error was calculated. [drawing 2] 2
At the conclusion of the titration described above, the CD signal at 313 nm (previously characterized for LThDP) was recorded. Pyruvate (1 mM) was then added to the mixture, and a CD scan of the resulting solution was conducted as described above, to detect shifts in the CD spectrum that may correlate to LThDP formation. Experiments were conducted in triplicate.

SMILES: CC(=O)P(=O)(O)OCCc1cn(C(Cc2ccccc2)(Cc2ccccc2)C(=O)O)nn1 [Compound 8]
- IC50 [1]: ≤ 0.072 µM
- concentration required for 21% inhibition of DXPS ([1]; 2 × Km pyruvate): less than 15.6 nM
- IC50 [2]: 3.007 ± 0.015 µM
- Ki [3]: 0.0029 ± 0.0005 µM
- Kd [4]: 19 ± 3 µM
- change in PLThDP CD signal upon addition of pyruvate ([4]; R99A-PLThDP complex): shift in the CD profile toward the characteristic LThDP signal
